Measured values from US8716309B2, “Pharmaceutical composition comprising pyridone derivatives” (priority 2011, dated 2014).

Each compound was assayed against human α7 nAChR (Homo sapiens, UniProt P36544) (assay: cell-based). Settings: EC50 of human α7nAChR(nM), HEK293T/17 cells transfected with human α7 nAChR; PNU-120596 added; relative to epibatidine 1 μM positive control.
Sequence of human α7 nAChR (P36544 23-502): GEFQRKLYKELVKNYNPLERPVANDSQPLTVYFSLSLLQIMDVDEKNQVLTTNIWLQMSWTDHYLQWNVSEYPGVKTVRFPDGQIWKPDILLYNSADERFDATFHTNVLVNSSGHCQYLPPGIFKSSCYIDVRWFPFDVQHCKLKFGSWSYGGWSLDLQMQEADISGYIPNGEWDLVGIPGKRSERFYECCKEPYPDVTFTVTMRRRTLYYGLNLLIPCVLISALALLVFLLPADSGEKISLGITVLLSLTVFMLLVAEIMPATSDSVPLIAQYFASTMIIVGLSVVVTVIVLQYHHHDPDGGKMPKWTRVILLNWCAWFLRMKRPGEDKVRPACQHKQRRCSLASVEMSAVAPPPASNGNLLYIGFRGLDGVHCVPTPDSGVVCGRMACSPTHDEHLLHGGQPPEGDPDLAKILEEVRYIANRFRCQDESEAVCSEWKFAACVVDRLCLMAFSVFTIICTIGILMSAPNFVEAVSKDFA
With O=C(NC1CN2CCC1CC2)c1ccc(=O)n(-c2ccccc2)c1 (stereo not shown) [Example 1, N-(1-azoniabicyclo[2.2.2]octan-3-yl)-6-oxo-1-phenyl-3-pyridinecarboxamide] the EC50 was over 1000 nM. In the case of O=C(NC1CN2CCC1CC2)c1ccc(=O)n(-c2ccccc2Cl)c1 (stereo not shown) [Example 2, N-(1-azabicyclo[2.2.2]octan-3-yl)-1-(2-chlorophenyl)-6-oxo-3-pyridinecarboxamide], the EC50 is reported as under 100 nM. O=C(N[C@@H]1CN2CCC1CC2)c1ccc(=O)n(-c2ccc(Cl)cc2)c1 [Example 6, N-[(3S)-1-azabicyclo[2.2.2]octan-3-yl]-1-(4-chlorophenyl)-6-oxopyridine-3-carboxamide] showed an EC50 of over 1000 nM. Work on O=C(NC1CN2CCC1CC2)c1ccc(=O)n(-c2ccc(F)cc2)c1 (stereo not shown) [Example 7, N-(1-azabicyclo[2.2.2]octan-3-yl)-1-(4-fluorophenyl)-6-oxo-3-pyridinecarboxamide] yielded an EC50 of 500 to 1000 nM. Cc1ccccc1-n1cc(C(=O)NC2CN3CCC2CC3)ccc1=O (stereo not shown) [Example 11, N-(1-azabicyclo[2.2.2]octan-3-yl)-1-(2-methylphenyl)-6-oxo-3-pyridinecarboxamide] showed an EC50 of over 1000 nM. Cc1ccc(-n2cc(C(=O)NC3CN4CCC3CC4)ccc2=O)cc1 (stereo not shown) [Example 12, N-(1-azabicyclo[2.2.2]octan-3-yl)-1-(4-methylphenyl)-6-oxo-3-pyridinecarboxamide] showed an EC50 of 500 to 1000 nM. Compound CCc1ccc(-n2cc(C(=O)NC3CN4CCC3CC4)ccc2=O)cc1 (stereo not shown) [Example 14, N-(1-azabicyclo[2.2.2]octan-3-yl)-1-(4-ethylphenyl)-6-oxo-3-pyridinecarboxamide] has an EC50 of 500 to 1000 nM. CCCc1ccc(-n2cc(C(=O)NC3CN4CCC3CC4)ccc2=O)cc1 (stereo not shown) [Example 15, N-(1-azabicyclo[2.2.2]octan-3-yl)-6-oxo-1-(4-propylphenyl)-3-pyridinecarboxamide] was tested, and the EC50 was 500 to 1000 nM. Compound CC(C)c1ccc(-n2cc(C(=O)NC3CN4CCC3CC4)ccc2=O)cc1 (stereo not shown) [Example 17, N-(1-azabicyclo[2.2.2]octan-3-yl)-6-oxo-1-(4-propan-2-ylphenyl)-3-pyridinecarboxamide] has an EC50 of 500 to 1000 nM. With O=C(NC1CN2CCC1CC2)c1ccc(=O)n(-c2ccc(C3CCCCC3)cc2)c1 (stereo not shown) [Example 18, N-(1-azabicyclo[2.2.2]octan-3-yl)-1-(4-cyclohexylphenyl)-6-oxo-3-pyridinecarboxamide] the EC50 was 500 to 1000 nM. COc1ccccc1-n1cc(C(=O)NC2CN3CCC2CC3)ccc1=O (stereo not shown) [Example 20, N-(1-azabicyclo[2.2.2]octan-3-yl)-1-(2-methoxyphenyl)-6-oxo-3-pyridinecarboxamide] showed an EC50 of 500 to 1000 nM. Cc1ccc(-n2cc(C(=O)NC3CN4CCC3CC4)ccc2=O)c(Cl)c1 (stereo not shown) [Example 29, N-(1-azabicyclo[2.2.2]octan-3-yl)-1-(2-chloro-4-methylphenyl)-6-oxo-3-pyridinecarboxamide] gave an EC50 of over 1000 nM. Work on Cc1ccc(-n2cc(C(=O)NC3CN4CCC3CC4)ccc2=O)c(C)c1 (stereo not shown) [Example 32, N-(1-azabicyclo[2.2.2]octan-3-yl)-1-(2,4-dimethylphenyl)-6-oxo-3-pyridinecarboxamide] yielded an EC50 of over 1000 nM. CC(C)(C)c1ccc(-n2cc(C(=O)NC3CN4CCC3CC4)ccc2=O)c(Cl)c1 (stereo not shown) [Example 36, N-(1-azabicyclo[2.2.2]octan-3-yl)-1-(4-tert-butyl-2-chlorophenyl)-6-oxo-3-pyridinecarboxamide] gave an EC50 of 100 to 500 nM. In the case of O=C(NC1CN2CCC1CC2)c1ccc(=O)n(-c2ccc(Cl)cc2F)c1 (stereo not shown) [Example 38, N-(1-azabicyclo[2.2.2]octan-3-yl)-1-(4-chloro-2-fluorophenyl)-6-oxo-3-pyridinecarboxamide], the EC50 is reported as 100 to 500 nM. Compound O=C(NC1CN2CCC1CC2)c1ccc(=O)n(-c2cccc(Cl)c2Cl)c1 (stereo not shown) [Example 46, N-(1-azabicyclo[2.2.2]octan-3-yl)-1-(2,3-dichlorophenyl)-6-oxo-3-pyridinecarboxamide] has an EC50 of 100 to 500 nM. COc1ccc(-n2cc(C(=O)NC3CN4CCC3CC4)ccc2=O)c(OC)c1 (stereo not shown) [Example 49, N-(1-azabicyclo[2.2.2]octan-3-yl)-1-(2,4-dimethoxyphenyl)-6-oxo-3-pyridinecarboxamide] showed an EC50 of 100 to 500 nM. In the case of COc1ccc(Cl)cc1-n1cc(C(=O)NC2CN3CCC2CC3)ccc1=O (stereo not shown) [Example 56, N-(1-azabicyclo[2.2.2]octan-3-yl)-1-(5-chloro-2-methoxyphenyl)-6-oxo-3-pyridinecarboxamide], the EC50 is reported as 500 to 1000 nM. O=C(NC1CN2CCC1CC2)c1ccc(=O)n(-c2ccc(OC(F)(F)F)cc2Cl)c1 (stereo not shown) [Example 57, N-(1-azabicyclo[2.2.2]octan-3-yl)-1-[2-chloro-4-(trifluoromethoxy)phenyl]-6-oxo-3-pyridinecarboxamide] was tested, and the EC50 was 100 to 500 nM. Work on O=C(NC1CN2CCC1CC2)c1ccc(=O)n(-c2cc(Cl)c(Cl)cc2Cl)c1 (stereo not shown) [Example 60, N-(1-azabicyclo[2.2.2]octan-3-yl)-1-(2,4,5-trichlorophenyl)-6-oxo-3-pyridinecarboxamide] yielded an EC50 of 500 to 1000 nM. In the case of O=C(NC1CN2CCC1CC2)c1ccc(=O)n(-c2ccccc2OCc2ccccc2)c1 (stereo not shown) [Example 63, N-(1-azabicyclo[2.2.2]octan-3-yl)-6-oxo-1-(2-phenylmethoxyphenyl)-3-pyridinecarboxamide], the EC50 is reported as over 1000 nM. With O=C(NC1CN2CCC1CC2)c1ccc(=O)n(-c2ccc(-c3ccc(Cl)cc3)cc2)c1 (stereo not shown) [Example 67, N-(1-azabicyclo[2.2.2]octan-3-yl)-1-[4-(4-chlorophenyl)phenyl]-6-oxo-3-pyridinecarboxamide] the EC50 was 500 to 1000 nM. In the case of Cc1ccc(-c2ccc(-n3cc(C(=O)NC4CN5CCC4CC5)ccc3=O)cc2)cc1 (stereo not shown) [Example 69, N-(1-azabicyclo[2.2.2]octan-3-yl)-1-[4-(4-methylphenyl)phenyl]-6-oxo-3-pyridinecarboxamide], the EC50 is reported as 100 to 500 nM. In the case of O=C(NC1CN2CCC1CC2)c1ccc(=O)n(-c2ccc(-c3ccccc3)cc2Cl)c1 (stereo not shown) [Example 70, N-(1-azabicyclo[2.2.2]octan-3-yl)-1-(2-chloro-4-phenylphenyl)-6-oxo-3-pyridinecarboxamide], the EC50 is reported as 100 to 500 nM. In the case of O=C(NC1CN2CCC1CC2)c1ccc(=O)n(-c2ccc(Oc3ccc(Cl)cc3)cc2)c1 (stereo not shown) [Example 71, N-(1-azabicyclo[2.2.2]octan-3-yl)-1-[4-(4-chlorophenoxy)phenyl]-6-oxo-3-pyridinecarboxamide], the EC50 is reported as 100 to 500 nM. For Cc1ccc(Oc2ccc(-n3cc(C(=O)NC4CN5CCC4CC5)ccc3=O)cc2)cc1 (stereo not shown) [Example 72, N-(1-azabicyclo[2.2.2]octan-3-yl)-1-[4-(4-methylphenoxy)phenyl]-6-oxo-3-pyridinecarboxamide], the EC50 was 100 to 500 nM. In the case of O=C(NC1CN2CCC1CC2)c1ccc(=O)n(-c2ccc(Oc3ccccc3)cc2)c1 (stereo not shown) [Example 73, N-(1-azabicyclo[2.2.2]octan-3-yl)-6-oxo-1-(4-phenoxyphenyl)-3-pyridinecarboxamide], the EC50 is reported as 500 to 1000 nM. Compound O=C(NC1CN2CCC1CC2)c1ccc(=O)n(-c2ccccc2Oc2ccccc2)c1 (stereo not shown) [Example 74, N-(1-azabicyclo[2.2.2]octan-3-yl)-6-oxo-1-(2-phenoxyphenyl)-3-pyridinecarboxamide] has an EC50 of 100 to 500 nM. In the case of CSc1ccc(-n2cc(C(=O)NC3CN4CCC3CC4)ccc2=O)cc1 (stereo not shown) [Example 76, N-(1-azabicyclo[2.2.2]octan-3-yl)-1-[4-(methylthio)phenyl]-6-oxo-3-pyridinecarboxamide], the EC50 is reported as 100 to 500 nM. In the case of CSc1ccccc1-n1cc(C(=O)N[C@H]2CN3CCC2CC3)ccc1=O [Example 78, N-[(3R)-1-azabicyclo[2.2.2]octan-3-yl]-1-[2-(methylthio)phenyl]-6-oxo-3-pyridinecarboxamide], the EC50 is reported as under 100 nM. CSc1ccccc1-n1cc(C(=O)N[C@@H]2CN3CCC2CC3)ccc1=O [Example 79, N-[(3S)-1-azabicyclo[2.2.2]octan-3-yl]-1-[2-(methylthio)phenyl]-6-oxo-3-pyridinecarboxamide] gave an EC50 of 100 to 500 nM. For CCSc1ccccc1-n1cc(C(=O)NC2CN3CCC2CC3)ccc1=O (stereo not shown) [Example 80, N-(1-azabicyclo[2.2.2]octan-3-yl)-1-[2-(ethylthio)phenyl]-6-oxo-3-pyridinecarboxamide], the EC50 was under 100 nM. CC(C)Sc1ccccc1-n1cc(C(=O)NC2CN3CCC2CC3)ccc1=O (stereo not shown) [Example 81, N-(1-azabicyclo[2.2.2]octan-3-yl)-6-oxo-1-[2-(propan-2-ylthio)phenyl]-3-pyridinecarboxamide] showed an EC50 of 100 to 500 nM. For O=C(NC1CN2CCC1CC2)c1ccc(=O)n(-c2ccccc2SCc2ccccc2)c1 (stereo not shown) [Example 82, N-(1-azabicyclo[2.2.2]octan-3-yl)-6-oxo-1-[2-(phenylmethylthio)phenyl]-3-pyridinecarboxamide], the EC50 was 100 to 500 nM. Compound CSc1ccc(C(F)(F)F)cc1-n1cc(C(=O)NC2CN3CCC2CC3)ccc1=O (stereo not shown) [Example 83, N-(1-azabicyclo[2.2.2]octan-3-yl)-1-[2-(methylthio)-5-(trifluoromethyl)phenyl]-6-oxo-3-pyridinecarboxamide] has an EC50 of 500 to 1000 nM. CCSc1cc(OC)ccc1-n1cc(C(=O)NC2CN3CCC2CC3)ccc1=O (stereo not shown) [Example 85, N-(1-azabicyclo[2.2.2]octan-3-yl)-1-[2-(ethylthio)-4-methoxyphenyl]-6-oxo-3-pyridinecarboxamide] gave an EC50 of under 100 nM. For CSc1cc(Cl)ccc1-n1cc(C(=O)N[C@H]2CN3CCC2CC3)ccc1=O [Example 87, N-[(3R)-1-azabicyclo[2.2.2]octan-3-yl]-1-[4-chloro-2-(methylthio)phenyl]-6-oxo-3-pyridinecarboxamide], the EC50 was under 100 nM. CSc1cc(Cl)ccc1-n1cc(C(=O)N[C@@H]2CN3CCC2CC3)ccc1=O [Example 88, N-[(3S)-1-azabicyclo[2.2.2]octan-3-yl]-1-[4-chloro-2-(methylthio)phenyl]-6-oxo-3-pyridinecarboxamide] was tested, and the EC50 was 100 to 500 nM. With CSc1cc(C)ccc1-n1cc(C(=O)N[C@H]2CN3CCC2CC3)ccc1=O [Example 90, N-[(3R)-1-azabicyclo[2.2.2]octan-3-yl]-1-[4-methyl-2-(methylthio)phenyl]-6-oxo-3-pyridinecarboxamide] the EC50 was under 100 nM. With CC(C)Sc1cc(Cl)ccc1-n1cc(C(=O)NC2CN3CCC2CC3)ccc1=O (stereo not shown) [Example 93, N-(1-azabicyclo[2.2.2]octan-3-yl)-1-[4-chloro-2-(propan-2-ylthio)phenyl]-6-oxo-3-pyridinecarboxamide] the EC50 was 100 to 500 nM.
